Test results: ChEMBL document CHEMBL1127196, “The use of synthetic peptide combinatorial libraries for the determination of peptide ligands in radio-receptor assays: Opioid peptides” (Bioorg Med Chem Lett, 1993)

These compounds were tested against Mu-type opioid receptor (Rattus norvegicus, UniProt P33535) (assay: Concentration required for 50% inhibition of [3H]DAGO binding to mu opioid receptor in crude rat brain homogenates).
Sequence of Mu-type opioid receptor (P33535 whole entry): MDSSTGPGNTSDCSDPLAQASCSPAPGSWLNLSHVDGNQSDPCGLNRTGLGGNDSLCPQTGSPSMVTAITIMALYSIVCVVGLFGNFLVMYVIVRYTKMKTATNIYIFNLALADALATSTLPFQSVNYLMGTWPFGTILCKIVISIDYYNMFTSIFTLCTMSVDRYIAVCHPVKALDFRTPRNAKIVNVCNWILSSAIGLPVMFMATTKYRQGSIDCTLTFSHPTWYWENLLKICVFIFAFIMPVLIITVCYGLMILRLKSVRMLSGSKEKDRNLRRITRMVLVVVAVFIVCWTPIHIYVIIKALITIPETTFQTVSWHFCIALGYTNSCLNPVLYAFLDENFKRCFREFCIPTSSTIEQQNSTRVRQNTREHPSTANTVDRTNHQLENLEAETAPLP
Type: tissue-based
Compound CSCC[C@H](NC(=O)[C@H](Cc1ccccc1)N(N)C(=O)CNC(=O)CN(N)C(=O)[C@H](Cc1ccc(ON)cc1)NN)C(=O)N[C@H](C(N)=O)C(C)C has an IC50 of 0.107 µM.
With CSCC[C@H](NC(=O)[C@H](Cc1ccccc1)NC(O)CNC(=O)CNC(=O)[C@@H](N)Cc1ccc(O)cc1)C(N)=O (some centres not stated) the IC50 was 0.034 µM.
Compound H-YGGFLA-NH2 has an IC50 of 0.06 µM.
H-YGGFLD-NH2 showed an IC50 of 0.214 µM.
H-YGGFLE-NH2 showed an IC50 of 0.315 µM.
Work on H-YGGFLF-NH2 yielded an IC50 of 0.381 µM.
For H-YGGFLG-NH2, the IC50 was 0.059 µM.
Compound H-YGGFLH-NH2 has an IC50 of 0.141 µM.
H-YGGFLI-NH2 gave an IC50 of 0.168 µM.
With H-YGGFLK-NH2 the IC50 was 0.201 µM.
H-YGGFLL-NH2 was tested, and the IC50 was 0.098 µM.
For H-YGGFLM-NH2, the IC50 was 0.112 µM.
For H-YGGFLN-NH2, the IC50 was 0.078 µM.
H-YGGFLP-NH2 gave an IC50 of 0.108 µM.
Compound H-YGGFLQ-NH2 has an IC50 of 0.075 µM.
In the case of H-YGGFLR-NH2, the IC50 is reported as 0.158 µM.
Compound H-YGGFLS-NH2 has an IC50 of 0.065 µM.
Work on H-YGGFLT-NH2 yielded an IC50 of 0.065 µM.
For H-YGGFLV-NH2, the IC50 was 0.189 µM.
With H-YGGFLY-NH2 the IC50 was 0.077 µM.
For H-YGGFMA-NH2, the IC50 was 0.028 µM.
H-YGGFMD-NH2 showed an IC50 of 0.167 µM.
H-YGGFME-NH2 was tested, and the IC50 was 0.204 µM.
H-YGGFMF-NH2 was tested, and the IC50 was 0.223 µM.
H-YGGFMG-NH2 showed an IC50 of 0.035 µM.
In the case of H-YGGFMH-NH2, the IC50 is reported as 0.037 µM.
Compound H-YGGFMI-NH2 has an IC50 of 0.08 µM.
Compound H-YGGFMK-NH2 has an IC50 of 0.041 µM.
For H-YGGFML-NH2, the IC50 was 0.035 µM.
For H-YGGFMM-NH2, the IC50 was 0.03 µM.
H-YGGFMN-NH2 was tested, and the IC50 was 0.028 µM.
Work on H-YGGFMP-NH2 yielded an IC50 of 0.057 µM.
H-YGGFMQ-NH2 gave an IC50 of 0.04 µM.
Compound H-YGGFMR-NH2 has an IC50 of 0.046 µM.
H-YGGFMS-NH2 was tested, and the IC50 was 0.034 µM.
H-YGGFMT-NH2 was tested, and the IC50 was 0.041 µM.
H-YGGFMY-NH2 showed an IC50 of 0.039 µM.
